This assay concerns HIV-1 fusion. The assay is described as follows: gp160 induced cell-cell fusion assay (HeLa P4 / CHO-Tat10 cell lines). In kind it is cell-based. Particulars: Human immunodeficiency virus 1, HeLaP4, read-out: IC50 against HIV-1 fusion. The procedure:
The gp160 induced cell-cell fusion assay uses a HeLa P4 cell line and a CHO-Tat10 cell line.
The HeLa P4 cell line expresses CCR5 and CD4 and has been transfected with HIV-1 LTR-β-Galactosidase. The media for this cell line is Dulbecco modified eagle's medium (D-MEM) (without L-glutamine) containing 10% foetal calf serum (FCS), 2 mM L-glutamine penicillin/streptomycin (Pen/Strep; 100 U/mL penicillin+[…] streptomycin), and 1 μg/ml puromycin.
The CHO cell line is a Tat (transcriptional trans activator)-expressing clone from a CHO JRR17.1 cell line that has been transfected with pTat puro plasmid. The media for this cell line is rich medium for mammalian cell culture originally developed at Roswell Park Memorial Institute RPMI1640 (without L-glutamine) containing 10% FCS, 2 mM L-glutamine, 0.5 mg/ml Hygromycin B and 12 μg/ml puromycin. The CHO JRR17.1 line expresses gp160 (JRFL) and is a clone that has been selected for its ability to fuse with a CCR5/CD4 expressing cell line.
Upon cell fusion, Tat present in the CHO cell is able to transactivate the HIV-1 long terminal repeat (LTR) present in the HeLa cell leading to the expression of the β-Galactosidase enzyme. This expression is then measured using a Fluor Ace™ β-Galactosidase reporter assay kit (Bio-Rad cat no. 170-3150). This kit is a quantitative fluorescent assay that determines the level of expression of β-galactosidase using 4-methylumbelliferul-galactopyranoside (MUG) as substrate. β-Galactosidase hydrolyses the fluorogenic substrate resulting in release of the fluorescent molecule 4-methylumbelliferone (4MU). Fluorescence of 4-methylumbelliferone is then measured on a fluorometer using an excitation wavelength of 360 nm and emission wavelength of 460 nm.
Compounds that inhibit fusion will give rise to a reduced signal and, following solubilisation in an appropriate solvent and dilution in culture medium, a dose-response curve for each compound can be used to calculate IC50 values.

The structures appear in SMILES notation.

On to `Cc1ccnc(C)c1C(=O)N1CCC(C)(N2CCC(N(Cc3ccccc3)C(=O)C3CC(F)(F)C3)CC2)CC1` [Example 1, N-benzyl-N-{1′-[(2,4-dimethylpyridin-3-yl)carbonyl]-4′-methyl-1,4′-bipiperidinyl-4-yl}-3,3-difluorocyclobutanecarboxamide], for which the IC50 was determined as 0.013 nM.
For the compound `Cc1ncnc(C)c1C(=O)N1C[C@H]2CC[C@@H](C1)[C@H]2N1CCC(N(Cc2ccccc2)C(=O)C2CC2)CC1` [Example 10, N-benzyl-N-(1-{(8-syn)-3-[(4,6-dimethylpyrimidin-5-yl)carbonyl]-3-azabicyclo}piperidin-4-yl)cyclopropanecarboxamide], the IC50 was found to be 516 nM.
For the compound `Cc1ncnc(C)c1C(=O)N1CCC(C)(N2CCC(N(Cc3ccccc3F)C(=O)C3CC(F)(F)C3)CC2)CC1` [Example 25, N-{1′-[(4,6-dimethylpyrimidin-5-yl)carbonyl]-4′-methyl-1,4′-bipiperidin-4-yl}-3,3-difluoro-N-(2-fluorobenzyl)cyclobutanecarboxamide], the IC50 was 5.5 nM.
For the compound `Cc1ncnc(C)c1C(=O)N1CCC(C)(N2CCC(N(Cc3ccccc3)S(C)(=O)=O)CC2)CC1` [Example 29, N-benzyl-N-{1′-[(4,6-dimethylpyrimidin-5-yl)carbonyl]-4′-methyl-1,4′-bipiperidin-4-yl}methanesulfonamide], the 50% inhibitory concentration (IC50) was 346 nM.
Turning to `Cc1ccnc(C)c1C(=O)N1CCC(C)(N2CCC(N(Cc3cccc(F)c3)C(=O)C3CC3)CC2)CC1` [Example 47, N-{1′-[(2,4-dimethylpyridin-3-yl)carbonyl]-4′-methyl-1,4′-bipiperidin-4-yl}-N-(3-fluorobenzyl)cyclopropanecarboxamide.2HCl], the IC50 was 0.343 nM.

Values taken from patent publication US20090124635A1, “CHEMICAL COMPOUNDS” (priority 2005, published 2009).
